# Assay results reported in ChEMBL document CHEMBL5316347, “Design, Synthesis, and Biological Evaluation of Bipyridazine Derivatives as Stimulator of Interferon Genes (STING) Receptor Agonists” (J Med Chem, 2023).
# Active and inactive are the calls of the source. The rule behind the calls is not given here.
# Experiments:
# [1] = target: T1, Stimulator of interferon genes protein (Homo sapiens, UniProt Q86WV6); experiment: Agonist activity at human STING in human THP1-Blue ISG cells incubated for 24 hrs in presence of PMA by luciferase reporter assay; assay type: cell-based
# T1 sequence (Q86WV6 whole entry): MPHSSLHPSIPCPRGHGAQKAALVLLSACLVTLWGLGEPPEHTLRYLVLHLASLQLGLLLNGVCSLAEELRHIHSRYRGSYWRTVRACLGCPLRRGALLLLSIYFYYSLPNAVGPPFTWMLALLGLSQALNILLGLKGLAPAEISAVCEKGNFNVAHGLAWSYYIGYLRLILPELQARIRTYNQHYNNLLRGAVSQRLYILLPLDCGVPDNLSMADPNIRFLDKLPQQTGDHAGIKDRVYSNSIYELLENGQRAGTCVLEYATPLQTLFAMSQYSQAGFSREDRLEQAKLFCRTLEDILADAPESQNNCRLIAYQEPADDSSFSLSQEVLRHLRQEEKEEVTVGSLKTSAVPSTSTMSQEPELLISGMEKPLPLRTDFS
# [2] = tested on: Stimulator of interferon genes protein (Homo sapiens), Q86WV6 [UNDEFINED MUTATION]; conditions: dose 50.0 µM
# Stimulator of interferon genes protein (Homo sapiens), Q86WV6 [UNDEFINED MUTATION], sequence (Q86WV6 whole entry, looked up, change not shown): as the sequence (Q86WV6 whole entry) above
# [3] = target: T2, Stimulator of interferon genes protein (Mus musculus, UniProt Q3TBT3); experiment: Agonist activity at mouse STING in mouse RAW-Lucia ISG cells incubated for 24 hrs in presence of PMA by luciferase reporter assay; assay type: cell-based
# T2 sequence (Q3TBT3 whole entry): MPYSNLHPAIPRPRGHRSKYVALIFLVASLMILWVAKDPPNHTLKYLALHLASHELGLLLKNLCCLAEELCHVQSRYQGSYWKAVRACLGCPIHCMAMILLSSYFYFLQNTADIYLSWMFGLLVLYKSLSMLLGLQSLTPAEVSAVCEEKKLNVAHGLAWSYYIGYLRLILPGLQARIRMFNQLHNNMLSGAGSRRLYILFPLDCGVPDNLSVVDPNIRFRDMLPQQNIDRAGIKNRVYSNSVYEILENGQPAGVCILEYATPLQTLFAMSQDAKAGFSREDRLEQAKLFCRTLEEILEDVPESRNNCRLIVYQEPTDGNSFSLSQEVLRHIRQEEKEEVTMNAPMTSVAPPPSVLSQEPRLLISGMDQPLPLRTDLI
# [4] = target: T1, Stimulator of interferon genes protein; experiment: Agonist activity at human STING in STING knockout human THP1-Blue ISG cells incubated for 24 hrs in presence of PMA by luciferase reporter assay; assay type: cell-based
# [5] = target: T2, Stimulator of interferon genes protein; experiment: Agonist activity at mouse STING in STING knockout mouse RAW-Lucia ISG cells incubated for 24 hrs in presence of PMA by luciferase reporter assay; assay type: cell-based
# [6] = target: T2, Stimulator of interferon genes protein; experiment: Agonist activity at mouse 6His-tagged recombinant STING CTD (144 to 378 residues) expressed in Escherichia coli BL21 (DE3) incubated for 10 mins by FRET assay
# THP-1 = experiment: Cytotoxicity against human THP-1 cells assessed as inhibition of cell growth upto 40 uM measured after 24 hrs in presence of PMA by CellTiter-Glo viability assay; assay type: toxicity, cell-based; conditions: thp-1, 24 h
# [7] = target: T3, Stimulator of interferon genes protein (Mus musculus) (UniProt Q3TBT3); experiment: Binding affinity to mouse 6His-tagged recombinant STING CTD (144 to 378 residues) expressed in Escherichia coli BL21 (DE3) assessed as thermal stability at 50 uM by measuring change in melting temperature by SYPRO orange dye based analysis; conditions: filed as agonist
# T3 sequence (whole entry): T2 sequence (Q3TBT3 whole entry)
# [8] = Half life in C57BL/6 mouse at 10 mg/kg, iv qd measured upto 24 hrs by LC-MS/MS analysis; assay type: ADME, organism-based; conditions: in vivo
# [9] = AUC(0 to t) in C57BL/6 mouse at 10 mg/kg, iv qd measured upto 24 hrs by LC-MS/MS analysis; assay type: ADME, organism-based; parameters: dose 10 mg/kg, time < 24 hrs, route iv; conditions: in vivo
# [10] = AUC(0 to infinity) in C57BL/6 mouse at 10 mg/kg, iv qd measured upto 24 hrs by LC-MS/MS analysis; assay type: ADME, organism-based; parameters: time < 24 hrs, dose 10 mg/kg, route iv; conditions: in vivo
# [11] = Clearance in C57BL/6 mouse at 10 mg/kg, iv qd measured upto 24 hrs by LC-MS/MS analysis; assay type: ADME, organism-based; conditions: in vivo
# [12] = MRT(0 to infinity) in C57BL/6 mouse at 10 mg/kg, iv qd measured upto 24 hrs by LC-MS/MS analysis; assay type: ADME, organism-based; conditions: in vivo
# [13] = Volume of distribution at steady state in C57BL/6 mouse at 10 mg/kg, iv qd measured upto 24 hrs by LC-MS/MS analysis; assay type: ADME, organism-based; conditions: in vivo, read-out: Vdss
# B16-F10 [14] = experiment: Antitumor activity against mouse B16-F10 cells implanted in C57BL/6 mouse assessed tumor growth inhibition at 10 mg/kg, ip qd measured for 14 days; assay type: functional, organism-based; conditions: time 14.0 day
# B16-F10 [15] = experiment: Antitumor activity against mouse B16-F10 cells implanted in C57BL/6 mouse assessed tumor growth inhibition at 30 mg/kg, ip qd measured for 14 days; assay type: functional, organism-based; conditions: time 14.0 day
# [16] = Toxicity in C57BL/6 mouse implanted with mouse B16-F10 cells assessed as body weight loss at 10 mg/kg, […] measured for 14 days; assay type: organism-based; conditions: in vivo, 336 h, time 14 day
smiles,measurement,setting,value
O=C(Nc1cc(F)c(F)cc1C(=O)O)c1ccc(Nc2cn[nH]c2)nn1,EC50,[1],22.3 µM
same,ΔTm,[2]; filed as agonist,1 °C
O=C(Nc1cc(F)c(F)cc1C(=O)O)c1ccc(-n2cncn2)nn1,EC50,[1],11.5 µM
same,ΔTm,[2]; filed as agonist,1.5 °C
COc1cc2cc(C(=O)CCC(=O)O)sc2cc1OC,EC50,[1],3.51 µM
same,EC50,[3],34.5 µM
same,EC50,[4],> 100 µM
same,EC50,[5],> 200 µM
N#Cc1ccn(-c2ccc(C(=O)Nc3cc(F)c(F)cc3C(=O)O)nn2)c1,EC50,[1],10.5 µM
same,ΔTm,[2]; filed as agonist,3.5 °C
O=C(Nc1cc(Cl)c(F)cc1C(=O)O)c1ccc(-c2ccnnc2)nn1,IC50,[6],0.93 µM
same,EC50,[3],35.3 µM
same,EC50,[5],> 200 µM
same,Activity,THP-1,Non-Toxic
O=C(Nc1cc(F)c(F)cc1C(=O)O)c1ccc(-n2ccnc2)nn1,IC50,[6],1.6 µM
same,ΔTm,[7],9 °C
same,EC50,[5],> 200 µM
same,half-life,[8],1.82 h
same,AUC(0-t) at 24 h,[9],1360 ng·h/mL
same,AUC(0-inf),[10],1370 ng·h/mL
same,clearance,[11],123 mL/min/kg
same,MRT inf,[12],0.495 h
same,Vd,[13],3.62 L/kg
same,inhibition,B16-F10 [14],inactive
same,inhibition,B16-F10 [15],Active
Cc1cncn1-c1ccc(C(=O)Nc2cc(F)c(F)cc2C(=O)O)nn1,EC50,[1],22.8 µM
same,ΔTm,[2],0 °C
O=C(Nc1ccc(Br)cc1C(=O)O)c1ccc(-c2ccnnc2)nn1,EC50,[1],4.5 µM
same,ΔTm,[2]; filed as agonist,3.5 °C
O=C(Nc1ccccc1C(=O)O)c1ccc(-c2ccnnc2)nn1,EC50,[1],> 100 µM
same,ΔTm,[2]; filed as agonist,0.5 °C
O=C(Nc1cc(F)c(F)cc1C(=O)O)c1ccc(N2CCOCC2)nn1,EC50,[1],> 100 µM
same,ΔTm,[2],0 °C
COc1ccc(NC(=O)c2ccc(-c3ccnnc3)nn2)c(C(=O)O)c1,EC50,[1],> 100 µM
same,ΔTm,[2],0 °C
O=C(Nc1cc(F)c(F)cc1C(=O)O)c1ccc(-c2ccnnc2)nn1,EC50,[1],17.9 µM
same,ΔTm,[2]; filed as agonist,6 °C
O=C(Nc1cc(Br)c(F)cc1C(=O)O)c1ccc(-c2ccnnc2)nn1,IC50,[6],1.9 µM
same,EC50,[3],42 µM
same,EC50,[5],> 200 µM
same,Activity,THP-1,Non-Toxic
Cn1cc(-c2ccc(C(=O)Nc3cc(F)c(F)cc3C(=O)O)nn2)cn1,EC50,[1],20.6 µM
same,ΔTm,[2]; filed as agonist,0 °C
O=C(Nc1cc(C(F)(F)F)ccc1C(=O)O)c1ccc(-c2ccnnc2)nn1,EC50,[1],> 100 µM
same,ΔTm,[2],0 °C
O=C(Nc1cc(F)c(F)cc1C(=O)O)c1ccc(N2CCCC2)nn1,EC50,[1],> 100 µM
same,ΔTm,[2]; filed as agonist,-1 °C
O=C(Nc1cc(F)c(F)cc1C(=O)O)c1ccc(-c2cncnc2)nn1,EC50,[1],32.3 µM
same,ΔTm,[2],0 °C
CCCn1c(NC(=O)c2cc(C)nn2CC)nc2cc(C(N)=O)cc(OC3COC3)c21,IC50,[6],4.35 µM
same,EC50,[3],5.22 µM
same,EC50,[5],> 200 µM
same,Activity,THP-1,Toxic
same,half-life,[8],1.13 h
same,AUC(0-t) at 24 h,[9],3820 ng·h/mL
same,AUC(0-inf),[10],3830 ng·h/mL
same,clearance,[11],43.8 mL/min/kg
same,MRT inf,[12],0.894 h
same,Vd,[13],2.38 L/kg
C#Cc1cc(NC(=O)c2ccc(-c3ccnnc3)nn2)c(C(=O)O)cc1F,IC50,[6],0.96 µM
same,EC50,[3],12.9 µM
same,EC50,[5],> 200 µM
same,Activity,THP-1,Non-Toxic
same,half-life,[8],2.1 h
same,AUC(0-t) at 24 h,[9],4390 ng·h/mL
same,AUC(0-inf),[10],4410 ng·h/mL
same,clearance,[11],37.8 mL/min/kg
same,MRT inf,[12],1.06 h
same,Vd,[13],2.39 L/kg
same,Activity,[16],Non-Toxic
O=C(Nc1ccc(C(F)(F)F)cc1C(=O)O)c1ccc(-c2ccnnc2)nn1,EC50,[1],1940 µM
same,ΔTm,[2]; filed as agonist,3.5 °C
O=C(Nc1cc(Br)ccc1C(=O)O)c1ccc(-c2ccnnc2)nn1,EC50,[3],> 200 µM
same,EC50,[5],> 200 µM
same,Activity,THP-1,Non-Toxic
O=C(Nc1cc(F)c(F)cc1C(=O)O)c1ccc(-c2cccnc2)nn1,EC50,[1],32.7 µM
same,ΔTm,[2],0 °C
O=C(Nc1cc(F)c(F)cc1C(=O)O)c1ccc(-n2cccc2)nn1,EC50,[1],33.6 µM
same,ΔTm,[2]; filed as agonist,0.5 °C
O=C(Nc1cc(F)c(F)cc1C(=O)O)c1ccc(-c2ccoc2)nn1,EC50,[1],38 µM
same,ΔTm,[2],0 °C
COc1ccc(C(=O)O)c(NC(=O)c2ccc(-c3ccnnc3)nn2)c1,EC50,[1],5.96 µM
same,ΔTm,[2]; filed as agonist,1.5 °C
COc1cc(NC(=O)c2ccc(-c3ccnnc3)nn2)c(C(=O)O)cc1OC,EC50,[1],21.3 µM
same,ΔTm,[2]; filed as agonist,0.5 °C
CC(=O)c1ccn(-c2ccc(C(=O)Nc3cc(F)c(F)cc3C(=O)O)nn2)c1,EC50,[1],29.9 µM
same,ΔTm,[2],0 °C
O=C(Nc1cc(F)c(F)cc1C(=O)O)c1ccc(-c2cnsc2)nn1,EC50,[1],17.6 µM
same,ΔTm,[2]; filed as agonist,3.5 °C
